# According to ChEMBL document CHEMBL1131005, “Synthesis and dopamine transporter affinity of the four stereoisomers of (+/-)-2-(methoxycarbonyl)-7-methyl-3-phenyl-7-azabicyclo[2.2.1]heptane” (J Med Chem, 1998):
# Molecular target: Sodium-dependent dopamine transporter (Rattus norvegicus, UniProt P23977)
# Test: Binding affinity towards dopamine transporter using [3H]WIN-35428 as radioligand in rat caudate-putamen tissue
# Assay type: tissue-based
# Chain of Sodium-dependent dopamine transporter (P23977 whole entry): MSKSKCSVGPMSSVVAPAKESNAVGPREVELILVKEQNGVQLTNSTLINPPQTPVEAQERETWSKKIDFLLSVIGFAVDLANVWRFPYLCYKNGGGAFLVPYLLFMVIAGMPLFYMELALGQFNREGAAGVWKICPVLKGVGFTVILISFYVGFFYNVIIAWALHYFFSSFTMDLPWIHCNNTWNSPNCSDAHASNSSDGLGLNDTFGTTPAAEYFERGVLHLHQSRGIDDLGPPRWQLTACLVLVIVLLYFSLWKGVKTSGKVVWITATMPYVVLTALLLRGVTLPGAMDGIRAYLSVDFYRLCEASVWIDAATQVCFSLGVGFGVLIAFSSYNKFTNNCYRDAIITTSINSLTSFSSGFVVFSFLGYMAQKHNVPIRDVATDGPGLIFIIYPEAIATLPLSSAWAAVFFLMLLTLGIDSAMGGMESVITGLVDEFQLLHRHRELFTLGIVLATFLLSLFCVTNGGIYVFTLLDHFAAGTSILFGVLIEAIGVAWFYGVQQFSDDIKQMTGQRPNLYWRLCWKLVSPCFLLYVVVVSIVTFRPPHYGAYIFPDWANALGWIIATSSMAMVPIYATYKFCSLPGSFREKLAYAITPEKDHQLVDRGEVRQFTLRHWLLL
row,Structure (SMILES),Ki
1,COC(=O)[C@@H]1C2CCC([C@H]1c1ccccc1)N2C (stereo partly drawn),5.62 µM
2,COC(=O)[C@H]1C2CCC([C@H]1c1ccccc1)N2C (stereo partly drawn),18.9 µM
3,COC(=O)[C@@H]1C2CCC([C@@H]1c1ccccc1)N2C (stereo partly drawn),60.4 µM
